# Results from patent US10882856B2 (BeiGene, Ltd., priority 2017, dated 2021).
# Columns and labels:
# [1] = molecular target: T1, TDO (Homo sapiens, UniProt P48775); assay: TDO enzymatic assay; type: biochemical; details: read-out: Enzyme IC50 TDO
# T1 construct: His tag (C); made in house; host or cells: E. coli
# Summary of the method: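 Recombinant C-terminally His-tagged TDO purified from E. coli (100 nM) was tested with 0.5 mM L-tryptophan (Km concentration). Otherwise the IDO1 enzymatic set-up was used: ascorbic acid, methylene blue, catalase, and potassium phosphate pH 7.5 with BSA, incubated 1.5 hours. N'-formylkynurenine absorbance was read continuously at 321 nm, and activity was taken as the slope. IC50 was calculated from remaining enzyme activity across increasing compound concentrations.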
# [2] = molecular target: T2, IDO1 (Homo sapiens, UniProt P14902); assay: Hela cell-based IDO1 assay; details: Hela cells
# T2 sequence (P14902 whole entry): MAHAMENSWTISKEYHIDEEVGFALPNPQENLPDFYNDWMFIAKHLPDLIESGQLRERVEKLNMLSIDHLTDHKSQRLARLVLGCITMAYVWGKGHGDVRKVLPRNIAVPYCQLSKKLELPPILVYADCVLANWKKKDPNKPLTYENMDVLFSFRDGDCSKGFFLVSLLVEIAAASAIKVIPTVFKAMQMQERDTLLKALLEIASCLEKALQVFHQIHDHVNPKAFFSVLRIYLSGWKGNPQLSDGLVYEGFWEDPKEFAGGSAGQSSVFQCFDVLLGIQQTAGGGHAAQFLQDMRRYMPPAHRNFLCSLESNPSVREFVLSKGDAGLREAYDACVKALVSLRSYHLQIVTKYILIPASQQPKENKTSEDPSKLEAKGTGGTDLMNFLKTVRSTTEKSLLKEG
# Summary of the method: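 HeLa cells were seeded at 8000 per well in 96-well plates in phenol red-free DMEM with 10% FBS. After 4 hours, DMSO-diluted compound dilutions were added with IFN-γ (final 100 ng/mL) and 0.4 mM L-Trp, and cells were kept 48 hours at 37 °C, 5% CO2. Supernatant was deproteinised with trichloroacetic acid, and kynurenine was measured at 480 nm after adding 2% 4-(dimethylamino)benzaldehyde. Potency came from four-parameter logistic fits in XLfit.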
# [3] = molecular target: T3, cellular TDO2 in HEK293-TDO2 cells (Homo sapiens, UniProt P48775); assay: 293-TDO2 cell-based assay (Kyn colorimetric); details: 48 hours of incubation
# T3 construct: expressed in transfected cells; host or cells: HEK293 (ATCC), stably transfected
# T3 sequence (P48775 whole entry): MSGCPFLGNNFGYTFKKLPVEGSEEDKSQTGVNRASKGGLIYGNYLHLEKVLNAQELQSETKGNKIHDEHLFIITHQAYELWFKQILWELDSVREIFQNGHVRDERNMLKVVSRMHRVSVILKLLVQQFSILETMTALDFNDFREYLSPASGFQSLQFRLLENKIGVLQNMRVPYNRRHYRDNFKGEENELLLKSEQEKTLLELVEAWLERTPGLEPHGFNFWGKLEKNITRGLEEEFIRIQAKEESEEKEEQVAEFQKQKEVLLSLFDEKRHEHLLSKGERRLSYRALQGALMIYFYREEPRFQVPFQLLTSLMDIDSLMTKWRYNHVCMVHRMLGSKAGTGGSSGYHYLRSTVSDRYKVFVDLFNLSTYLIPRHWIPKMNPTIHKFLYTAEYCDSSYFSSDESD
# Summary of the method: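 Kyn formed from L-Trp was read colorimetrically at 480 nm (TCA deproteinisation, then 2% 4-(dimethylamino)benzaldehyde). Compounds were added to 293-TDO2 cells 4 h post-seeding and left 48 h at 37° C. A four-parameter logistic model gave IC50 values.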
# [4] = molecular target: T2, IDO1; assay: IDO1 enzymatic assay; type: biochemical; design: His tag (N); made in house; host or cells: E. coli; details: read-out: Enzyme IC50 IDO1
# Summary of the method: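 Compound was incubated with 50 nM His-tagged IDO1 from E. coli, 1.3 mM D-tryptophan, 5 mM L-ascorbic acid, methylene blue and 0.4 mg/mL catalase in 50 mM potassium phosphate pH 7.5, 0.1% BSA, at 24 °C for 1.5 hours. Activity was the slope of N'-formylkynurenine formation read continuously at 321 nm for 1 hour. IC50 was obtained from remaining activity versus compound concentration.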
# T1 sequence (P48775 whole entry): as above
SMILES,IC50 [1] [µM],EC50 [2] [nM],EC50 [3] [µM],IC50 [4] [nM]
"COc1ccccc1[C@H]1CC[C@H]([C@H](O)c2c(C3CC3)ccn3cncc23)CC1 (single isomer, unassigned) [Example C113a]",5.7,89,> 10,28
"COCCOc1ccc([C@H]2CC[C@H]([C@H](O)c3c(C4CC4)ccn4cncc34)CC2)cc1 (single isomer, unassigned) [Example C103a]",10,167,> 10,21
"COc1ccc([C@H]2CC[C@H]([C@H](O)c3c(C4CC4)ccn4cncc34)CC2)cc1 [Example C101a, (S)-(7-cyclopropylimidazo[1,5-a]pyridin-8-yl)(4-(4-methoxyphenyl)cyclohexyl)methanol]",4.2,110,> 10,17
"O[C@H](c1c(C2CC2)ccn2cncc12)[C@H]1CC[C@H](c2ccccc2C(F)(F)F)CC1 (single isomer, unassigned) [Example C116a]",6.3,500,> 10,77
"O[C@H](c1c(C2CC2)ccn2cncc12)[C@H]1CC[C@H](c2ccccc2F)CC1 (single isomer, unassigned) [Example C108a]",5.1,112,> 10,28
"O[C@H](c1c(C2CC2)ccn2cncc12)[C@H]1CC[C@H](c2ccc(OC3COC3)cc2)CC1 (single isomer, unassigned) [Example C117a]",3.4,131,> 10,15
"Cn1cc(-c2ccc(N3CCC(C(O)c4c(C5CC5)ccn5cncc45)CC3)cc2)cn1 (stereo not shown) [Example C152, (7-cyclopropylimidazo[1,5-a]pyridin-8-yl)(1-(4-(1-methyl-1H-pyrazol-4-yl)phenyl)piperidin-4-yl)methanol]",3.3,520,> 10,29
"OC(c1c(C2CC2)ccn2cncc12)C1CCN(c2ccnc3ccccc23)CC1 (stereo not shown) [Example C150, (7-cyclopropylimidazo[1,5-a]pyridin-8-yl)(1-(quinolin-4-yl)piperidin-4-yl)methanol]",,1510,> 10,160
"O[C@H](c1c(C2CC2)ccn2cncc12)[C@H]1CC[C@H](c2ccnc3ccccc32)CC1 (single isomer, unassigned) [Example C130a]",,44,> 10,17
"COCCOc1ccc([C@H]2CC[C@H]([C@@H](O)c3c(C4CC4)ccn4cncc34)CC2)cc1 (single isomer, unassigned) [Example C103b]",,2980,> 10,1200

# Other lines, results leading:
IC50 [1] [µM],EC50 [2] [nM],EC50 [3] [µM],IC50 [4] [nM],SMILES
12,31,> 10,20,"O[C@H](c1c(C2CC2)ccc2cncn12)[C@H]1CC[C@H](c2cccc(F)c2)CC1 (single isomer, unassigned) [Example D156a]"
9.4,43,> 10,15,"O[C@H](c1c(C2CC2)ccc2cncn12)[C@H]1CC[C@H](c2cccc(Cl)c2)CC1 (single isomer, unassigned) [Example D116a]"
7.4,36,> 10,19,"O[C@H](c1c(C2CC2)ccc2cncn12)[C@H]1CC[C@H](c2ccc(F)c3ccccc32)CC1 (single isomer, unassigned) [Example D137a]"
6.1,135,> 10,15,"OC(c1c(C2CC2)ccc2cncn12)[C@H]1CC[C@H](c2ccc3ccsc3c2)CC1 (single isomer, unassigned) [Example D134a]"
5.6,67,> 10,17,"OC(c1c(C2CC2)ccc2cncn12)[C@H]1CC[C@H](c2ccc(OC3CCOCC3)cc2)CC1 (single isomer, unassigned) [Example D114c]"
1.4,777,> 10,17,"O[C@H](c1cc(Cl)cc2cncn12)[C@H]1CC[C@H](c2cccc3ccccc32)CC1 (single isomer, unassigned) [Example E103a]"
13,277,> 10,19,"O[C@H](c1c(C2CC2)ccc2cncn12)[C@H]1CC[C@H](c2ccc(F)c(F)c2F)CC1 (single isomer, unassigned) [Example D145a]"
7.7,306,> 10,25,"O[C@H](c1c(C2CC2)ccc2cncn12)[C@H]1CC[C@H](c2ccc(Br)cc2)CC1 (single isomer, unassigned) [Example D118a]"
5.3,29,> 10,14,"COc1ccc([C@H]2CC[C@H]([C@H](O)c3c(C4CC4)ccc4cncn34)CC2)cc1 (single isomer, unassigned) [Example D102a]"
,7940,> 10,8820,"O[C@@H](c1c(C2CC2)ccc2cncn12)C1CCN(c2ccccc2)CC1 (single isomer, unassigned) [Example D170b]"
,470,> 10,25,"O=C(O)c1ccc(C2CCC(C(O)c3c(C4CC4)ccc4cncn34)CC2)cc1 (stereo not shown) [Example D111, 4-(4-((6-cyclopropylimidazo[1,5-a]pyridin-5-yl)(hydroxy)methyl)cyclohexyl)benzoic acid]"
,358,> 10,51,"OC(c1c(C2CC2)ccc2cncn12)C1CCC(c2ccc3ccccc3c2)CC1 (stereo not shown) [Example D136, (6-cyclopropylimidazo[1,5-a]pyridin-5-yl)(4-(naphthalen-2-yl)cyclohexyl)methanol]"
,364,> 10,61,"OC(c1c(C2CC2)ccc2cncn12)C1CCC(c2ccc3ccsc3c2)CC1 (stereo not shown) [Example D134, (4-(benzo[b]thiophen-6-yl)cyclohexyl)(6-cyclopropylimidazo[1,5-a]pyridin-5-yl)methanol]"
,118,> 10,37,"O=C(COc1ccc([C@H]2CC[C@H]([C@H](O)c3c(C4CC4)ccc4cncn34)CC2)cc1)c1ccccc1 [Example D152, 2-(4-((1S,4r)-4-((S)-(6-cyclopropylimidazo[1,5-a]pyridin-5-yl)(hydroxy)methyl)cyclohexyl)henoxy)-1-phenylethan-1-one]"
,80,> 10,15,"O[C@H](c1c(C2CC2)ccc2cncn12)C1CCN(c2ccc(Cl)cc2)CC1 (single isomer, unassigned) [Example D174a]"
,869,> 10,76,"OC(c1c(C2CC2)ccc2cncn12)C1CCC(c2ccc(OC(F)(F)F)cc2)CC1 (stereo not shown) [Example D105, (6-cyclopropylimidazo[1,5-a]pyridin-5-yl)(4-(4-trifluoromethoxy)phenylcyclohexyl)methanol]"
,52,> 10,23,"O[C@H](c1c(C2CC2)ccc2cncn12)[C@H]1CC[C@H](c2cc(F)cc(F)c2)CC1 (single isomer, unassigned) [Example D144a]"
,40,> 10,24,"OC(c1c(C2CC2)ccc2cncn12)C1CCN(c2ccc(Cl)c3ncccc23)CC1 (stereo not shown) [Example D178, (1-(8-chloroquinolin-5-yl)piperidin-4-yl)(6-cyclopropylimidazo[1,5-a]pyridin-5-yl)methanol]"
,5950,> 10,7500,"COc1cccc([C@H]2CC[C@H]([C@@H](O)c3c(C(C)C)ccc4cncn34)CC2)c1 (single isomer, unassigned) [Example D169b]"
,> 10000,> 10,2300,"OC(c1c(C2CC2)ccc2cncn12)[C@H]1CC[C@H](c2ccc(C(F)(F)F)nc2)CC1 (single isomer, unassigned) [Example D107b]"
,25,> 10,17,"CC(C)c1ccc2cncn2c1[C@@H](O)[C@H]1CC[C@H](c2cccc(Cl)c2)CC1 (single isomer, unassigned) [Example D168a]"
,32,> 10,32,"OC(c1c(C2CC2)ccc2cncn12)C1CCC(c2cccc3ccccc23)CC1 (stereo not shown) [Example D135, (6-cyclopropylimidazo[1,5-a]pyridin-5-yl)(4-(naphthalen-1-yl)cyclohexyl)methanol]"
